Test results published in patent US20200179380A1, “SOLUTE AND SOLUTE MIXTURE, AS WELL AS A COMPOSITION COMPRISING AT LEAST ONE SOLUTE, FOR USE IN THE PREVENTION OR TREATMENT OF COSMETIC OR PATHOLOGIC EFFLORESCENCES CAUSED BY AIRBORNE PARTICLES” (bitop AG, priority 2014, published 2020).
Values joined by “and” are separate entries in the source; they are usually repeats but may differ in a detail not shown here. Equal values may be shown once. Read-outs that look alike come from different tables or passages of the source.

Tests used:
Assay type in all cases: cell-based, human
Cyp1a1 gene = Cyp1a1 gene expression (real-time PCR, relative to 18s-rRNA) in keratinocytes exposed to model particles; details: for inhibition at 2000 µM / activity at 2000 µM: Homo sapiens, Keratinocyte, 2 mM S-ectoine; for activity at 2000 µM: read-out: Cyp1a1 Remaining activity %
Experimental: The model particles were suspended in phosphate buffered saline solution and treated with ultrasound for 1 minute ([…]90, SRM1650 and SRM2975) or 90 seconds (Huber990). Subsequently, addition to keratinocytes was done immediately. […] The incubation time of keratinocytes under the influence of model particles was 24 hours. Human epidermal keratinocytes were taken from healthy patients during abdominoplasty or breast reduction with the consent of the patients. The tissue donors originate in Asia or were of Caucasian origin. The keratinocytes isolated from the tissues were cultivated in Keratinocyte-SFM (Gibco®, Life Technologies GmbH, Darmstadt, Germany). The medium was enriched by 5 mg/L of human recombinant epidermal growth factor (EGF), 50 mg/L pituitarium which is an extract from pituitary gland from bovine (Bovine Pituitary Extract, BPE), 1% L-glutamine, 1% streptomycin/amphotericin B (Invitrogen, Karlsruhe, Germany). The cultivation was done at humid atmosphere in the presence of 5% CO2. Subconfluent keratinocytes were transferred to sample vessels having 12 sample wells (12-well plates), and were each cultivated in the sample wells. Treatment with the model particles was also done in the sample wells. […] After an incubation time of 24 hours in the presence of the model particles, RNA was isolated from the keratinocytes and relative RNA content was determined. The expression of proinflammatory gene ICAM-1, POMC gene encoding for proopiomelanocortin, MMP1 gene encoding for a human collagenase, and Cyp1a1 encoding for a phase-I-enzyme of Cytochrome P450 superfamily was investigated as a marker for the influence of the model particles on skin condition. The enzyme encoded by Cyp1a1 gene ranks among the group of phase-I-P450-Cytochrome enzymes and mediates metabolism of drugs, foreign substances and environmental toxins. The Cy1a1 enzyme is a monooxygenase and responsible for metabolizing the afore-mentioned compounds. The protein is encoded in endoplasmic reticulum and its expression can severely be induced by polycyclic aromatic hydrocarbons. The enzyme encoded by Cyp1a1 metabolizes environmental noxae, in particular polycyclic aromatic hydrocarbons, into cancer-causing intermediates. Cyp1a2 is a family member related to Cyp1a1. Increased Cyp1a1 expression, and, in particular, increased Cyp1a2 expression, thus proves detoxification reaction. The total RNA content was determined according to […] et al. ([…]-Beck […], Brenden H, […]. “Bioactive molecules from the Blue Lagoon: in vitro and in vivo assessment of silica mud and microalgae extracts for their effects on skin barrier function and prevention of skin ageing”. Exp Dermatol 2008 17:771.). For this purpose, the total RNA was isolated using RNeasy Total RNA Kits (Qiagen, Hilden; Germany). The RNA concentration was photometrically determined at 260/280 nm (Biophotometer, Eppendorf, Hamburg, Germany). Aliquots of total RNA of 100 ng were used for first strand cDNA synthesis using Superscript® III for the transcription step using random primers (Invitrogen, Karlsruhe, Germany). […] For the total RNA content a specific primer for the proof of 18s rRNA was designed. Independent experiments were performed with a triple determination in each case, and the mean was determined. PCR reaction was done using CFX384 TouchTM Real-Time PCR Detection System (Bio-Rad, München, Germany). In order to fluorescent marking SybrGreen-Mix was used (Thermo Fisher Scientific, St. Leon-Rot, Germany). For each experiment three samples, respectively, were determined in duplicate, and the mean was determined. […] (activation of heat-activating taq polymerase) 10 seconds at 95° C. (denaturation), 20 seconds at 55° C. (annealing), 20 seconds at 72° C. (elongation). Likewise, for comparison of relative expression the expression of untreated keratinocytes was investigated. […] Methods 25: 402-408). […] The data underlying the statistical analysis are not shown here.

POMC gene = POMC gene expression (real-time PCR, relative to 18s-rRNA) in keratinocytes exposed to model particles; details: for inhibition at 2000 µM / activity at 2000 µM: Homo sapiens, Keratinocyte, 2 mM S-ectoine; for activity at 2000 µM: read-out: POMC Remaining activity %; for POMC expression ±S-ectoine mean ± SD: 24 h pretreatment with 2 mM S-ectoine, untreated = 1; for POMC expression induced by model particles after ectoine pretreatment (in words): Printex90, Huber 990, SRM1650, SRM2975, pretreatment with 2 mM ectoine for 24 hours
MMP1 gene = MMP1 gene expression (real-time PCR, relative to 18s-rRNA) in keratinocytes exposed to model particles; details: for inhibition at 2000 µM / activity at 2000 µM: Homo sapiens, Keratinocyte, 2 mM S-ectoine; for activity at 2000 µM: read-out: MMP1 Remaining activity %; for MMP1 expression ±S-ectoine mean ± SD: 24 h pretreatment with 2 mM S-ectoine, untreated = 1
Experimental: The model particles were suspended in phosphate buffered saline solution and treated with ultrasound for 1 minute ([…]90, SRM1650 and SRM2975) or 90 seconds (Huber990). Subsequently, addition to keratinocytes was done immediately. […] The incubation time of keratinocytes under the influence of model particles was 24 hours. Human epidermal keratinocytes were taken from healthy patients during abdominoplasty or breast reduction with the consent of the patients. The tissue donors originate in Asia or were of Caucasian origin. The keratinocytes isolated from the tissues were cultivated in Keratinocyte-SFM (Gibco®, Life Technologies GmbH, Darmstadt, Germany). The medium was enriched by 5 mg/L of human recombinant epidermal growth factor (EGF), 50 mg/L pituitarium which is an extract from pituitary gland from bovine (Bovine Pituitary Extract, BPE), 1% L-glutamine, 1% streptomycin/amphotericin B (Invitrogen, Karlsruhe, Germany). The cultivation was done at humid atmosphere in the presence of 5% CO2. Subconfluent keratinocytes were transferred to sample vessels having 12 sample wells (12-well plates), and were each cultivated in the sample wells. Treatment with the model particles was also done in the sample wells. […] After an incubation time of 24 hours in the presence of the model particles, RNA was isolated from the keratinocytes and relative RNA content was determined. The expression of proinflammatory gene ICAM-1, POMC gene encoding for proopiomelanocortin, MMP1 gene encoding for a human collagenase, and Cyp1a1 encoding for a phase-I-enzyme of Cytochrome P450 superfamily was investigated as a marker for the influence of the model particles on skin condition. The collagenase encoded by MMP1 gene ranks among the matrix metalloproteases and cleaves the peptide bond between proline and other amino acids of collagen I, II, III, VII and X, thereby degrading the collagen. Collagenases and, in particular, the MMP1 collagenase are involved in tissue remodeling and biological processes of the skin, such ach morphogenesis or tumor growth (benign or malign tumor formation). Thus, increased expression of MMP1 gene is a proof for increased activity of the skin cells, in particular keratinocytes. Increased MMP1 gene expression can be an indication of excessive cell growth and, thereby, of benign or malign carcinogenesis. The total RNA content was determined according to […] et al. ([…]-Beck […], Brenden H, […]. “Bioactive molecules from the Blue Lagoon: in vitro and in vivo assessment of silica mud and microalgae extracts for their effects on skin barrier function and prevention of skin ageing”. Exp Dermatol 2008 17:771.). For this purpose, the total RNA was isolated using RNeasy Total RNA Kits (Qiagen, Hilden; Germany). The RNA concentration was photometrically determined at 260/280 nm (Biophotometer, Eppendorf, Hamburg, Germany). Aliquots of total RNA of 100 ng were used for first strand cDNA synthesis using Superscript® III for the transcription step using random primers (Invitrogen, Karlsruhe, Germany). […] For the total RNA content a specific primer for the proof of 18s rRNA was designed. Independent experiments were performed with a triple determination in each case, and the mean was determined. PCR reaction was done using CFX384 TouchTM Real-Time PCR Detection System (Bio-Rad, München, Germany). In order to fluorescent marking SybrGreen-Mix was used (Thermo Fisher Scientific, St. Leon-Rot, Germany). For each experiment three samples, respectively, were determined in duplicate, and the mean was determined. The PCR protocol comprised 46 cycles, each cycle 15 minutes at 94° C. (activation of heat-activating taq polymerase) 10 seconds at 95° C. (denaturation), 20 seconds at 55° C. (annealing), 20 seconds at 72° C. (elongation). Likewise, for comparison of relative expression the expression of untreated keratinocytes was investigated. […] Methods 25: 402-408). […] The data underlying the statistical analysis are not shown here.

[1] = Printex90, Huber 990, SRM1650, SRM2975, pretreatment with 2 mM ectoine

Question: What does the source list for CC1=N[C@H](C(=O)O)CCN1 [S-ectoine, (S)-1,4,5,6-tetrahydro-2-methyl-4-pyrimidine carboxylic acid]?
Answer: inhibition at 2000 µM (Cyp1a1 gene; Huber990 particles): 57%; activity at 2000 µM (Cyp1a1 gene; Huber990 particles): 43%; inhibition at 2000 µM (Cyp1a1 gene; Printex90 particles): 70%; activity at 2000 µM (Cyp1a1 gene; Printex90 particles): 30%; inhibition at 2000 µM (Cyp1a1 gene; SRM1650 particles): 46%; activity at 2000 µM (Cyp1a1 gene; SRM1650 particles): 54%; inhibition at 2000 µM (Cyp1a1 gene; SRM2975 particles): 41%; activity at 2000 µM (Cyp1a1 gene; SRM2975 particles): 59%; Cyp1a1 expression induced by model particles after ectoine pretreatment (in words) (Cyp1a1 gene; [1]): inhibited; Cyp1a1 expression ±S-ectoine mean ± SD (Cyp1a1 gene; Printex90 particles, 24 h pretreatment with 2 mM S-ectoine, untreated = 1): 1.19 and 1.19 ± 0.29; inhibition at 2000 µM (POMC gene; Huber990 particles): 100%; activity at 2000 µM (POMC gene; Huber990 particles): 0%; inhibition at 2000 µM (POMC gene; Printex90 particles): 100%; activity at 2000 µM (POMC gene; Printex90 particles): 0%; inhibition at 2000 µM (POMC gene; SRM1650 particles): 99%; activity at 2000 µM (POMC gene; SRM1650 particles): 1%; inhibition at 2000 µM (POMC gene; SRM2975 particles): 100%; activity at 2000 µM (POMC gene; SRM2975 particles): 0%; POMC expression ±S-ectoine mean ± SD (POMC gene; Huber990 particles): 0.83 ± 0.04+; POMC expression induced by model particles after ectoine pretreatment (in words) (POMC gene): significant inhibition; POMC expression induced by model particles after ectoine pretreatment (in words) (POMC gene; listed as ectoine): inhibited; POMC expression ±S-ectoine mean ± SD (POMC gene; Printex90 particles): 0.88 ± 0.05+; POMC expression ±S-ectoine mean ± SD (POMC gene; SRM1650 particles): 1.01 ± 0.05+; POMC expression ±S-ectoine mean ± SD (POMC gene; SRM2975 particles): 0.99 ± 0.08+; inhibition at 2000 µM (MMP1 gene; Huber990 particles): 42%; activity at 2000 µM (MMP1 gene; Huber990 particles): 58%; inhibition at 2000 µM (MMP1 gene; SRM1650 particles): 26%; activity at 2000 µM (MMP1 gene; SRM1650 particles): 74%; MMP1 expression induced by model particles after ectoine pretreatment (in words) (MMP1 gene; [1]): inhibited; MMP1 expression ±S-ectoine mean ± SD (MMP1 gene; Printex90 particles): 0.82 ± 0.10; MMP1 expression ±S-ectoine mean ± SD (MMP1 gene; SRM2975 particles): 1.28 ± 0.22
